According to ChEMBL document CHEMBL1201862, “PubChem BioAssay data set” (2004):
Values belong to the molecule of their own block, whether it stands above or below them. The source made the active and inactive calls. Cut-off read from the data, not from the text of the source, for most assays here: actives have a measured IC50 and inactives only a lower limit.

Key:
[1] = target: T1, Sentrin-specific protease 8 (Homo sapiens, UniProt Q96LD8); assay: SENP8 protease inhibitors, SAR follow-up, biochemical, luminescence (AID 504501); assay type: functional
T1 sequence (Q96LD8 whole entry): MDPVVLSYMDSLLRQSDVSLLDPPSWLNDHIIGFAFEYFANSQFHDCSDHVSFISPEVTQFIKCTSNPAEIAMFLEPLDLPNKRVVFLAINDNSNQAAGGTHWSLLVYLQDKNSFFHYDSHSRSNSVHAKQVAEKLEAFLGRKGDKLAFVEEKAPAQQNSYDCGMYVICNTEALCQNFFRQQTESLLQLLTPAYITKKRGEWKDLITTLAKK

Caspase-3 [2] = target: T2, Caspase-3 (Homo sapiens, UniProt P42574); assay: SAR Analysis of small molecule inhibitors of Sentrin-specific proteases (SENPs) using a Caspase-3 Selectivity assay. [Related pubchem assays (depositor defined):AID2540, AID2599, AID434973, AID489001]; assay type: functional
T2 sequence (P42574 whole entry): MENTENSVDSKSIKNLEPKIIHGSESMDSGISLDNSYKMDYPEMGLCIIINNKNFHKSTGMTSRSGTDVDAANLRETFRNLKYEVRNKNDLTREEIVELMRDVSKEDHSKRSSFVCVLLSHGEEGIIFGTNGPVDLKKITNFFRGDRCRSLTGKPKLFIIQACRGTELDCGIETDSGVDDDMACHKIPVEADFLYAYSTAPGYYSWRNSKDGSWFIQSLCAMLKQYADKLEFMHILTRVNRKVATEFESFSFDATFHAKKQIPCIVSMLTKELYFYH

[3] = target: T3, Sentrin-specific protease 6 (Homo sapiens, UniProt Q9GZR1); assay: SAR Analysis of small molecule inhibitors of Sentrin-specific protease 6 (SENP6) using a Luminescent assay. [Related pubchem assays (depositor defined):AID2582, AID2599]; assay type: functional
T3 sequence (Q9GZR1 whole entry): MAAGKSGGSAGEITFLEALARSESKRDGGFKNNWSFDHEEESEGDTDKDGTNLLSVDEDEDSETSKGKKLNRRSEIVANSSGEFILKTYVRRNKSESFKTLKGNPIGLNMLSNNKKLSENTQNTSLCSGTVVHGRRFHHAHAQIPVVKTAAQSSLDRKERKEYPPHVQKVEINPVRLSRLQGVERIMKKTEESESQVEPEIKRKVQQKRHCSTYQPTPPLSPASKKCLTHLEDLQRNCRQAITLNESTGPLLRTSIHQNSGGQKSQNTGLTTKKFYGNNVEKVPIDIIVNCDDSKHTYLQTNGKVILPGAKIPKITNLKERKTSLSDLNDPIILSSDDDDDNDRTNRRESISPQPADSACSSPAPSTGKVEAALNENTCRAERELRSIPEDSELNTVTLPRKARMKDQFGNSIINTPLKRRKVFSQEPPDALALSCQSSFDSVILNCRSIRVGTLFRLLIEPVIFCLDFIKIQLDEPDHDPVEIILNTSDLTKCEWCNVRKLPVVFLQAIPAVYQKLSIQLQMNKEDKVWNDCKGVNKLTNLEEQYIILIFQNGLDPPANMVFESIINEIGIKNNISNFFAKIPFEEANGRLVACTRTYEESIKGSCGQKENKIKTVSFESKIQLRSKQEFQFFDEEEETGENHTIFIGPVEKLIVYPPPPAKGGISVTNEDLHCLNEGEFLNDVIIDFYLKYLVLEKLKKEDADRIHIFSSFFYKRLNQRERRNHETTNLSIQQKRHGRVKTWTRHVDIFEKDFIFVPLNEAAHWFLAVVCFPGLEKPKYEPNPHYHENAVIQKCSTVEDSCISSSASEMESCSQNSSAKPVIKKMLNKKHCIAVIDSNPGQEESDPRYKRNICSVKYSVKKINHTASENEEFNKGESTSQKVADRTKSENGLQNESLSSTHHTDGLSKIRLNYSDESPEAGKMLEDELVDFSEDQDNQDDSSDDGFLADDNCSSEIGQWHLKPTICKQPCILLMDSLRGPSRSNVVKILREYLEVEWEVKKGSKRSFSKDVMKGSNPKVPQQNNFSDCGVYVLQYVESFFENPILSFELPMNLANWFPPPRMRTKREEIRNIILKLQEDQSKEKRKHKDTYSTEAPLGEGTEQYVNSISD

[4] = target: T4, Sentrin-specific protease 7 (Homo sapiens, UniProt Q9BQF6); assay: SENP7 protease inhibitors, SAR follow-up, biochemical, luminescence (AID 504497); assay type: functional
T4 sequence (Q9BQF6 whole entry): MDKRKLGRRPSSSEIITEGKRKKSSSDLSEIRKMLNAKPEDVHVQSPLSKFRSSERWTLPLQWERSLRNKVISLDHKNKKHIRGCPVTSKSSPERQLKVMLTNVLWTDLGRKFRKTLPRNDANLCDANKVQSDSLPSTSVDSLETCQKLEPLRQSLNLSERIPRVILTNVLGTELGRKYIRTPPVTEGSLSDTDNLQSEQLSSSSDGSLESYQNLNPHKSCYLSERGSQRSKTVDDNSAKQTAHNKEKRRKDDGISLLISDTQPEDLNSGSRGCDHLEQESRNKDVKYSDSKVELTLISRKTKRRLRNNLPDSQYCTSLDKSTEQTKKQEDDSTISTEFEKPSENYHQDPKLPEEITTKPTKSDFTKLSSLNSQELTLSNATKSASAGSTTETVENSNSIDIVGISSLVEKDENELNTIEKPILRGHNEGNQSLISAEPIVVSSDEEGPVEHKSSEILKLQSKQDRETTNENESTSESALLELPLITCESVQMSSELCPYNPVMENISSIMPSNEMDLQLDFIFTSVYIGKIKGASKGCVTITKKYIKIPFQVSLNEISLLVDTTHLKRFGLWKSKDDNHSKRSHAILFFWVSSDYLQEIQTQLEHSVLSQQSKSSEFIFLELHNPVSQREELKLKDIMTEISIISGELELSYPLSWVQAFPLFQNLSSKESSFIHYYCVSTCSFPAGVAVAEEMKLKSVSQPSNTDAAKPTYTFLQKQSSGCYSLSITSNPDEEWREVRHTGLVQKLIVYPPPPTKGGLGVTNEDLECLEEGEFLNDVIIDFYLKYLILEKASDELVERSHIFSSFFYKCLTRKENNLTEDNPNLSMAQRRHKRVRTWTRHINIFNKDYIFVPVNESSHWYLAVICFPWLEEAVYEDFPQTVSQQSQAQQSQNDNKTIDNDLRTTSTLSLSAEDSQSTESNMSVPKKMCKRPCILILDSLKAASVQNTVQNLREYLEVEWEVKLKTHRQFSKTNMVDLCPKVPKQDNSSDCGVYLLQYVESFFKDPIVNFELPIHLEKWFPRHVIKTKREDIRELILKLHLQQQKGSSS

INS1 = assay: inhibitors of cytokine-induced nitrite release, dose response, cell-based, Griess absorbance, INS-1E, dry powder, set 2 (AID 488868); assay type: functional; conditions: Rattus norvegicus
Caspase-3 [5] = target: T2, Caspase-3; assay: caspase-3 inhibitors as off-family protease, SAR follow-up, selectivity assay for SENP protease inhibitor project, biochemical, luminescence, set 2 (AID 588599); assay type: functional
[6] = target: T1, Sentrin-specific protease 8; assay: SENP8 protease inhibitors, SAR follow-up, biochemical, luminescence, set 2 (AID 588601); assay type: functional
[7] = target: T4, Sentrin-specific protease 7; assay: SENP7 protease inhibitors, SAR follow-up, biochemical, luminescence, set 2 (AID 588600); assay type: functional
[8] = target: T3, Sentrin-specific protease 6; assay: SENP6 protease inhibitors, SAR follow-up, biochemical, luminescence, set 2 (AID 588598); assay type: functional
[9] = Luminescence Cell-Based Dose Retest to Confirm Inhibitors of Cancer Stem Cells. [Related pubchem assays (depositor defined):AID2717, AID2721]; assay type: functional; conditions: Homo sapiens
Insulin-degrading enzyme [10] = target: T5, Insulin-degrading enzyme (Homo sapiens, UniProt P14735); assay: activators of recombinant IDE enzyme, dose response, counter-screen for IDE activator project, biochemical, fluorescence polarization (AID 588681)
Insulin-degrading enzyme [11] = target: T5, Insulin-degrading enzyme; assay: activators of endogenous IDE in HEK cells, dose response, cell-based, fluorescence polarization (AID 588439); assay type: functional
HEK293 [12] = assay: HEK cell cytotoxicity by LDH release, dose response, cytotoxicity control for IDE activator project, fluorescence, HEK cells (AID 588440); assay type: functional, cell-based; conditions: Homo sapiens;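 note: cytotoxicity by LDH release measuring loss of membrane integrity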
HEK293 [13] = assay: optical interference in Abeta FP readout, dose response, artefact control for IDE activator project, biochemical, fluorescence polarization (AID 588442); assay type: functional, cell-based; conditions: Homo sapiens

T5 sequence (P14735 whole entry): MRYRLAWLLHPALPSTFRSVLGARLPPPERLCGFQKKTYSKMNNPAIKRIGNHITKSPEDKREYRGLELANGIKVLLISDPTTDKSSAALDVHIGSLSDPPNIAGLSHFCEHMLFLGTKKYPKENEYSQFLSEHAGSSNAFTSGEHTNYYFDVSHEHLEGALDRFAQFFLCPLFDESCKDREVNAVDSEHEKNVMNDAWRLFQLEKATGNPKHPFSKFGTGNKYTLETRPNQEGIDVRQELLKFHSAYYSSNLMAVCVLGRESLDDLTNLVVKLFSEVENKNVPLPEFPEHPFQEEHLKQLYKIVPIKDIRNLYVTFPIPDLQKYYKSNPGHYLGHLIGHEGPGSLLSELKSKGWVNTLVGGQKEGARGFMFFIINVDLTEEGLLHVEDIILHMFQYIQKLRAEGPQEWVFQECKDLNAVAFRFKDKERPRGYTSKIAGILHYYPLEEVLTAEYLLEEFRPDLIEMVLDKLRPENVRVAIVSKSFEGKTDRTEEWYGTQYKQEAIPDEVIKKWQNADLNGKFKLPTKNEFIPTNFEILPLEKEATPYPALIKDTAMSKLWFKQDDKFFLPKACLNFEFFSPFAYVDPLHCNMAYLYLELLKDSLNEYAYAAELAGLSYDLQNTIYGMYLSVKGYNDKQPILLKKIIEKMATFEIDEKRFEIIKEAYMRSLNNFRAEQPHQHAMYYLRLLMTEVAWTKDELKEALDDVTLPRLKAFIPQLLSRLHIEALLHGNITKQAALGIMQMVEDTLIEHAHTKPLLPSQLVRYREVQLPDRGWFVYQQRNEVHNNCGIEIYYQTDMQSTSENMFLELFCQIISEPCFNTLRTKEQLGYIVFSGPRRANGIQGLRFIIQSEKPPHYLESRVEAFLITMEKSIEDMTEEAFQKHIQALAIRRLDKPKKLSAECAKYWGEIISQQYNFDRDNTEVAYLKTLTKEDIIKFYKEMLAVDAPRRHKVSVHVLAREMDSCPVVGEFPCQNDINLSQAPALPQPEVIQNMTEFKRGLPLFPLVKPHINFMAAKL

IC50 (Caspase-3 [2]): 2.27 µM (active) | IC50 [3]: 1.81 µM (active) | IC50 [4]: 1.31 µM (active)
SMILES: CCC(=O)Nc1ccc2oc(-c3ccc(Cl)cc3)nc2c1
IC50 [1]: 1.76 µM (active)

SMILES: C[C@@H]1CN([C@@H](C)CO)C(=O)c2cccc(NC(=O)Nc3cccc4ccccc34)c2O[C@H]1CN(C)S(=O)(=O)c1cccs1
AC50 (INS1): 206 µM (active)

IC50 (Caspase-3 [5]): > 99 µM (inactive) | IC50 [7]: > 99 µM (inactive) | IC50 [8]: > 99 µM (inactive)
SMILES: O=C1CN(C(=O)C(=O)c2c[nH]c3ccccc23)c2ccccc2N1
IC50 [6]: > 99 µM (inactive)

SMILES: C=CCN1C(=O)/C(=C2\C(=O)Nc3ccccc32)S/C1=N/c1ccc(O)cc1
AC50 [9]: 4.14 µM (active) | EC50 (Insulin-degrading enzyme [10]): > 54.7 µM (inactive) | EC50 (Insulin-degrading enzyme [11]): 16.6 µM (inactive) | IC50 (HEK293 [12]): 26.6 µM (inactive) | EC50 (HEK293 [13]): > 54.7 µM (inactive)
